Several values for one entry are separate records, joined by “and”; a condition that tells them apart may be missing. Identical values can stand only once.
Tests used:
Assay type in all cases: functional, Homo sapiens
[1] = system: U2OS; experiment: (§1) Here: values are normalized to the negative (DMSO; defined as 0% autophagy induction) and positive (250nM Torin1; mTOR inhibitor; defined as maximal inducer of autophagy = 100%) control compounds and represented as % of autophagy induction. […] The impact of autophagy induction on cells is complex and depends on the affected target. As such, the magnitude of a phenotype may not be equally mirrored in the %-value of autophagy induction and vice versa. The dynamics of the induction may indicate the mode of activation: e.g. activation via phosphorylation or a signaling cascade may occur fast, while activation via transcription factors may take considerably longer. […] Of note, treatment concentrations may be sub-optimal for specific compounds, leading to false negative annotations.; details: Culturing Media DMEM, 1 % Penicillin/Streptomycin, 10% Fetal bovin serum Add-On: No, Screening Media Control DMEM, Screening Media Samples DMEM
[2] = system: U2OS; experiment: as §1; details: Culturing Media DMEM, 1 % Penicillin/Streptomycin, 10% Fetal bovin serum Add-On: No, Screening Media Control DMEM, Screening Media Samples DMEM; remark: listed apart in the source
[3] = system: TERT-RPE1; experiment: as §1; details: Compound Concentration 1 uM, Culturing Media DMEM/F12 (1:1), 1 % Penicillin/Streptomycin, 10% Fetal bovin serum Add-On: No, Screening Media Control DMEM/F12 (1:1), Screening Media Samples DMEM/F12 (1:1)
[4] = Compound Concentration 0.5 uM, Timepoint 12 hours
[5] = Compound Concentration 0.5 uM, Timepoint 24 hours
[6] = Compound Concentration 0.5 uM, Timepoint 36 hours
[7] = Compound Concentration 0.5 uM, Timepoint 60 hours
[8] = Compound Concentration 2 uM, Timepoint 12 hours
[9] = Compound Concentration 2 uM, Timepoint 24 hours
[10] = Compound Concentration 2 uM, Timepoint 36 hours
[11] = Compound Concentration 2 uM, Timepoint 60 hours
[12] = Compound Concentration 10 uM, Timepoint 12 hours
[13] = Compound Concentration 10 uM, Timepoint 24 hours
[14] = Compound Concentration 10 uM, Timepoint 36 hours
[15] = Compound Concentration 10 uM, Timepoint 60 hours

Cc1csc2c(N[C@@H](C)CN3CCN(S(=O)(=O)c4ccc(Cl)c(Cl)c4)CC3)ncnc12
autophagy induction [1, 4]: -0.007707% | autophagy induction [1, 5]: -1.5% | autophagy induction [1, 6]: -0.4844% | autophagy induction [1, 7]: -654.702% | autophagy induction [1, 8]: 4.101% | autophagy induction [1, 9]: 0.5386% | autophagy induction [1, 10]: -0.3647% | autophagy induction [1, 11]: 114.139% | autophagy induction [1, 12]: -10.3141% | autophagy induction [1, 13]: -6.4207% | autophagy induction [1, 14]: -4.537% | autophagy induction [1, 15]: 114.595% | autophagy induction [2, 4]: 6.768% | autophagy induction [2, 5]: 8.8628% | autophagy induction [2, 6]: 13.6009% | autophagy induction [2, 7]: 4.711% | autophagy induction [2, 8]: 2.53% | autophagy induction [2, 9]: 6.7674% | autophagy induction [2, 10]: 12.0314% | autophagy induction [2, 11]: 11.989% | autophagy induction [2, 12]: 12.5309% | autophagy induction [2, 13]: 16.4077% | autophagy induction [2, 14]: 26.9308% | autophagy induction [2, 15]: 28.2658%

O=C(NCCS(=O)(=O)c1ccc(C(F)(F)F)cn1)c1ccc(Cl)cc1
autophagy induction ([3]; Timepoint 12 hours): -3.2973% | autophagy induction ([3]; Timepoint 24 hours): -5.225% | autophagy induction ([3]; Timepoint 36 hours): 0.4695% | autophagy induction ([3]; Timepoint 60 hours): 10.0166%

O=C(O)c1cc(F)c2nc(N3[C@@H]4CC[C@H]3C[C@@H](OCc3c(-c5ccccc5OC(F)(F)F)noc3C3CC3)C4)sc2c1 [TROPIFEXOR]
autophagy induction ([3]; Timepoint 12 hours): -16.0144% | autophagy induction ([3]; Timepoint 24 hours): -6.889% | autophagy induction ([3]; Timepoint 36 hours): 7.971% | autophagy induction ([3]; Timepoint 60 hours): -23.0565%

CCO[C@H](COc1ccc(C(F)(F)F)cc1)CSc1ccc(OCC(=O)[O-])c(C)c1.[Na+]
autophagy induction ([3]; Timepoint 12 hours): 0.706% | autophagy induction ([3]; Timepoint 24 hours): -0.6859% | autophagy induction ([3]; Timepoint 36 hours): 2.912% | autophagy induction ([3]; Timepoint 60 hours): 3.397%

Cc1cc(OCC(=O)O)cc(C)c1Cc1ccc(O)c(C(C)C)c1 [SOBETIROME]
autophagy induction ([3]; Timepoint 12 hours): -4.298% | autophagy induction ([3]; Timepoint 24 hours): -6.005% | autophagy induction ([3]; Timepoint 36 hours): 3.899% | autophagy induction ([3]; Timepoint 60 hours): 12.5403%

C=C1/C(=C\C=C2/CCC[C@]3(C)[C@@H]([C@H](C)/C=C/C=C/C(O)(CC)CC)CC[C@@H]23)C[C@@H](O)C[C@@H]1O [SEOCALCITOL]
autophagy induction ([3]; Timepoint 12 hours): 1.435% | autophagy induction ([3]; Timepoint 24 hours): 3.014% | autophagy induction ([3]; Timepoint 36 hours): 6.115% | autophagy induction ([3]; Timepoint 60 hours): 9.3722%

Cl.O=C(O)Cc1cccc(OCCCN(Cc2cccc(C(F)(F)F)c2Cl)CC(c2ccccc2)c2ccccc2)c1
autophagy induction ([3]; Timepoint 12 hours): -4.945% | autophagy induction ([3]; Timepoint 24 hours): -7.042% | autophagy induction ([3]; Timepoint 36 hours): -10.7668% | autophagy induction ([3]; Timepoint 60 hours): -6.3424%

Cc1nc(-c2ccc(C(F)(F)F)cc2)sc1C(=O)NCc1ccc(OC(C)(C)C(=O)O)cc1 [GW590735]
autophagy induction ([3]; Timepoint 12 hours): -16.082% | autophagy induction ([3]; Timepoint 24 hours): -2.956% | autophagy induction ([3]; Timepoint 36 hours): 16.0196% | autophagy induction ([3]; Timepoint 60 hours): -2.481%

COc1ccc(-c2ccc3cc(C(=O)O)ccc3c2)cc1C12CC3CC(CC(C3)C1)C2
autophagy induction ([3]; Timepoint 12 hours): -16.1508% | autophagy induction ([3]; Timepoint 24 hours): -22.2133% | autophagy induction ([3]; Timepoint 36 hours): -14.1287% | autophagy induction ([3]; Timepoint 60 hours): 30.465%

COC(=O)C(Cc1ccc(OCCn2c(=O)sc3cc(C(=O)c4ccccc4)ccc32)cc1)C(=O)OC
autophagy induction ([3]; Timepoint 12 hours): -14.8184% | autophagy induction ([3]; Timepoint 24 hours): -7.449% | autophagy induction ([3]; Timepoint 36 hours): 12.2337% | autophagy induction ([3]; Timepoint 60 hours): -20.3416%

CC1(C)C(=O)C(C)(C)c2cc(C(=O)Nc3ccc(C(=O)O)cc3)ccc21
autophagy induction ([3]; Timepoint 12 hours): -15.7037% | autophagy induction ([3]; Timepoint 24 hours): -5.578% | autophagy induction ([3]; Timepoint 36 hours): 15.5375% | autophagy induction ([3]; Timepoint 60 hours): -28.4557%

CC(C)c1ccc(CC(=O)N2CCC[C@@H](c3cccc(OC(C)(C)C(=O)O)c3)C2)cc1
autophagy induction ([3]; Timepoint 12 hours): 2.269% | autophagy induction ([3]; Timepoint 24 hours): -2.988% | autophagy induction ([3]; Timepoint 36 hours): 2.286% | autophagy induction ([3]; Timepoint 60 hours): -0.7623%

CSc1ccc(C(=O)/C=C/c2cc(C)c(OC(C)(C)C(=O)O)c(C)c2)cc1 [ELAFIBRANOR]
autophagy induction ([3]; Timepoint 12 hours): -15.4717% | autophagy induction ([3]; Timepoint 24 hours): -8.668% | autophagy induction ([3]; Timepoint 36 hours): 8.143% | autophagy induction ([3]; Timepoint 60 hours): -14.713%

C=C1/C(=C\C=C2/CCC[C@]3(C)[C@@H]([C@H](C)/C=C/[C@H](C)C(C)C)CC[C@@H]23)C[C@@H](O)C[C@@H]1O [DOXERCALCIFEROL]
autophagy induction ([3]; Timepoint 12 hours): -0.6335% | autophagy induction ([3]; Timepoint 24 hours): -0.7736% | autophagy induction ([3]; Timepoint 36 hours): 0.8774% | autophagy induction ([3]; Timepoint 60 hours): -4.588%

CC(C=CC1=C(C)CCCC1(C)C)=CC=CC(C)=CC(=O)O
autophagy induction ([3]; Timepoint 12 hours): -29.8215% | autophagy induction ([3]; Timepoint 24 hours): -16.487% | autophagy induction ([3]; Timepoint 36 hours): 10.9979% | autophagy induction ([3]; Timepoint 60 hours): 39.1731%

COC(=O)c1sccc1S(=O)(=O)Nc1ccc(Nc2ccccc2)cc1OC
autophagy induction ([3]; Timepoint 12 hours): -12.2106% | autophagy induction ([3]; Timepoint 24 hours): -1.2% | autophagy induction ([3]; Timepoint 36 hours): 15.0919% | autophagy induction ([3]; Timepoint 60 hours): -15.7117%

CC(=O)Nc1nc(C)c(S(=O)(=O)Nc2ccc(C(O)(C(F)(F)F)C(F)(F)F)cc2)s1
autophagy induction ([3]; Timepoint 12 hours): 4.3226% | autophagy induction ([3]; Timepoint 24 hours): 10.3847% | autophagy induction ([3]; Timepoint 36 hours): 21.8693% | autophagy induction ([3]; Timepoint 60 hours): -92.7489%

Cc1cc(SCc2sc(-c3ccc(C(F)(F)F)cc3)nc2C)ccc1OCC(=O)O [GW501516]
autophagy induction ([3]; Timepoint 12 hours): 35.2172% | autophagy induction ([3]; Timepoint 24 hours): -7.412% | autophagy induction ([3]; Timepoint 36 hours): 9.218% | autophagy induction ([3]; Timepoint 60 hours): -19.4944%

COc1cc(O)c(C(CC(=O)N2C[C@H](C)C[C@H](C)C2)c2ccc3c(c2)OCO3)c(OC)c1 (stereo partly specified)
autophagy induction ([3]; Timepoint 12 hours, 12 h, 1 µM): -12.9989% and -4.38% | autophagy induction ([3]; Timepoint 24 hours, 24 h, 1 µM): -0.5632% and -3.782% | autophagy induction ([3]; Timepoint 36 hours, 36 h, 1 µM): 12.4792% and 2.693% | autophagy induction ([3]; Timepoint 60 hours, 60 h, 1 µM): -12.6071% and -5.875%

CC(C)c1c(CN(C)C(C)Cc2ccccc2)n(C)n(-c2ccccc2)c1=O (stereo unspecified) [FAMPROFAZONE]
autophagy induction ([3]; Timepoint 12 hours): -9.526% | autophagy induction ([3]; Timepoint 24 hours): -5.45% | autophagy induction ([3]; Timepoint 36 hours): -2.084% | autophagy induction ([3]; Timepoint 60 hours): -36.1562%

COc1ccc(OC(=O)N(CC(=O)O)Cc2ccc(OCCc3nc(-c4ccccc4)oc3C)cc2)cc1 [MURAGLITAZAR]
autophagy induction ([3]; Timepoint 12 hours): 84.7945% | autophagy induction ([3]; Timepoint 24 hours): -9.438% | autophagy induction ([3]; Timepoint 36 hours): 5.064% | autophagy induction ([3]; Timepoint 60 hours): -9.533%

CN(CCOc1ccc(CC2SC(=O)NC2=O)cc1)c1ccccn1 (stereo unspecified) [ROSIGLITAZONE]
autophagy induction ([3]; Timepoint 12 hours): -11.8893% | autophagy induction ([3]; Timepoint 24 hours): 0.9014% | autophagy induction ([3]; Timepoint 36 hours): 16.9691% | autophagy induction ([3]; Timepoint 60 hours): -11.1596%

CC(C)C(=O)N1CCC(c2cn(C)c3ncc(NC(=O)c4cccc(C#N)c4)c(C(F)(F)F)c23)CC1
autophagy induction ([3]; Timepoint 12 hours): -17.3669% | autophagy induction ([3]; Timepoint 24 hours): -7.8656% | autophagy induction ([3]; Timepoint 36 hours): 13.4062% | autophagy induction ([3]; Timepoint 60 hours): -15.2604%

Cc1cccc(CN2CCN(C(c3ccccc3)c3ccc(Cl)cc3)CC2)c1.Cl.Cl (stereo unspecified)
autophagy induction ([3]; Timepoint 12 hours): 89.2215% | autophagy induction ([3]; Timepoint 24 hours): -0.434% | autophagy induction ([3]; Timepoint 36 hours): 13.2807% | autophagy induction ([3]; Timepoint 60 hours): -24.9822%
